{"source": "ChEMBL document CHEMBL1151411", "about": "“Plant Anticancer Agents. XIII. Constituents of Austrocedrus chilensis” (1983)", "test_system": "KB", "assay": "Cytotoxicity against human KB cells", "format": "functional", "conditions": "read-out: ED50 (the source's name)"}
{"compound": "CC(C)c1cc2c(cc1O)[C@@]1(CO)CCCC(C)(C)[C@@H]1CC2", "note": "[PISIFEROL]", "values": [{"measurement": "EC50", "result": 100, "unit": "µg/mL"}]}
{"compound": "CC(C)C1=CC2(O)CC[C@H]3C(C)(C)CCC[C@]3(CO)C2=CC1=O", "note": "(some centres not stated)", "values": [{"measurement": "EC50", "result": 16, "unit": "µg/mL"}]}
